# Measurements: patent US20240376075A1, “POLYMORPHIC FORMS OF AURORA A SELECTIVE INHIBITORS AND USES THEREOF” (Jacobio Pharmaceuticals Co., Ltd., priority 2021, published 2024)
# What was measured:
# [1] = Crystal form stability experiment (XRPD); format: physicochemical; conditions: for Results (XRPD): uncapped or sealed, protected from light, 7 days and 14 days
# Experimental: 1. […] The crystal forms stability test was carried out under the specified experimental conditions.
# [2] = PK in dog, oral suspension; format: in vivo, Beagle dogs; conditions: for AUC(0-t) / Cmax / half-life: dog, plasma, Beagle dogs, suspension in 0.5% CMC-Na
# Experimental: Then plasma samples were collected at 0 hour (pre-dose), 0.083, 0.25, 0.5, 1, 2, 4, 6, 8, 24 hours post-dose. Plasma drug concentration was detected by LC-MS/MS. Pharmacokinetic parameters were calculated using WinNonlin's software with non-compartmental model.
# [3] = PK in rat, oral suspension; format: in vivo; conditions: Sprague-Dawley, plasma, SD rats, PO: 5 mg/kg, suspension in 0.5% CMC-Na
# Experimental: The plasma samples were collected at 0 hour (pre-dose), 0.083, 0.25, 0.5, 1, 2, 4, 6, 8, 24 hours post-dose. Plasma drug concentration was detected by LC-MS/MS. Pharmacokinetic parameters were calculated using WinNonlin's software with non-compartmental model.
smiles,measurement,setting,value
"Cc1cc(Nc2nc(C[C@@]3(C(=O)[O-])CCN(Cc4cccc(Cl)c4F)[C@H](C)C3)cc(C)c2F)n[nH]1.[K+] [Polymorph form II, potassium (2R,4R)-1-(3-chloro-2-fluorobenzyl)-4-((5-fluoro-4-methyl-6-((5-methyl-1H-pyrazol-3-yl)amino)pyridin-2-yl)methyl)-2-methylpiperidine-4-carboxylate]",solid form conversion,[1]; after drying under 40° C. overnight,converted to polymorph form I
"Cc1cc(Nc2nc(C[C@@]3(C(=O)[O-])CCN(Cc4cccc(Cl)c4F)[C@H](C)C3)cc(C)c2F)n[nH]1.[K+] [Polymorph form III, potassium (2R,4R)-1-(3-chloro-2-fluorobenzyl)-4-((5-fluoro-4-methyl-6-((5-methyl-1H-pyrazol-3-yl)amino)pyridin-2-yl)methyl)-2-methylpiperidine-4-carboxylate]",solid form conversion,[1]; when cooled back to room temperature,converted to polymorph form I
"Cc1cc(Nc2nc(C[C@@]3(C(=O)[O-])CCN(Cc4cccc(Cl)c4F)[C@H](C)C3)cc(C)c2F)n[nH]1.[K+] [amorphous, potassium (2R,4R)-1-(3-chloro-2-fluorobenzyl)-4-((5-fluoro-4-methyl-6-((5-methyl-1H-pyrazol-3-yl)amino)pyridin-2-yl)methyl)-2-methylpiperidine-4-carboxylate]",solid form conversion,[1]; sealed for more than two weeks,transformed to Polymorph form I
"Cc1cc(Nc2nc(C[C@@]3(C(=O)[O-])CCN(Cc4cccc(Cl)c4F)[C@H](C)C3)cc(C)c2F)n[nH]1.[K+] [polymorph form I, potassium (2R,4R)-1-(3-chloro-2-fluorobenzyl)-4-((5-fluoro-4-methyl-6-((3-methyl-1H-pyrazol-5-yl)amino)pyridin-2-yl)methyl)-2-methylpiperidine-4-carboxylate monohydrate]",AUC(0-t),[2]; PO: 3 mg/kg,45.5 µg·h/mL
same,Cmax,[2]; PO: 3 mg/kg,14400 ng/mL
same,half-life,[2]; PO: 3 mg/kg,487 min
same,AUC(0-t),[2]; PO: 10 mg/kg,165 µg·h/mL
same,Cmax,[2]; PO: 10 mg/kg,45000 ng/mL
same,half-life,[2]; PO: 10 mg/kg,271 min
same,absorption and exposure in vivo,"[2]; oral, summary of Examples 6 and 7 (rat and dog)",great absorption and a high exposure
same,Results (XRPD),"[1]; Accelerated (40° C. ± 2° C., 75% RH ± 10% RH)",Polymorph form I
same,Results (XRPD),"[1]; Long-time (25° C. ± 2° C., 65% RH ± 10% RH)",Polymorph form I
same,relative stability of the forms,[1]; at room temperature,most stable
same,crystal form stability,[1]; long-term and accelerated conditions for 14 days,remained unchanged
same,AUC(0-t),[3],93300 ng·h/mL
same,Cmax,[3],12400 ng/mL
same,half-life,[3],247 min
